Experimental data published in patent publication US20170258943A1, “Using Heavy Water as a Contrast Agent for Hydrogen Magnetic Resonance Imaging” (National Tsing Hua University, priority 2014, published 2017).

Experiments:
[1] = amount of injected D2O less than 20% of body weight; cited from earlier work
[2] = T1 and T2 relaxation rates of H in D2O concentration phantom; assay type: physicochemical; conditions: FIG. 1A
Protocol: The R1 and R2 in the vertical axis are the relaxation rates of T1 and T2 relaxation, respectively.
In an experimental phantom with D2O concentration as c, respective concentrations of H2O, HDO, and D2O are (1-c)^2, 2c(1-c), and c^2, where a part of c of H is replaced by D. Population ratio of H coupled H and D coupled H is calculated as (1-c):c. The observed T1 and T2 relaxation rates are the population weighted sums of all H. Since the D coupled H has slower relaxation rates than H coupled H, we observe linear relations of R1 and R2 as changing the D2O concentration c in FIG. 1A and FIG. 1B.

[3] = Dynamic H MRI of rat brain after intravenous injection of contrast agent; assay type: in vivo, Sprague-Dawley rats; conditions: whole brain ROI, 1.5 mL D2O into tail vein (about 0.6% of body weight), 4.7 T
Protocol: Please refer to FIG. 2A and FIG. 2B, which are views showing consecutive MRI images and a curve of signal change. As shown in the figures, 6 normal adult Sprague-Dawley rats (˜200-310 g) are used. Each rat is anesthetized with 1.5% isoflurane/air via a nose cone with respiratory monitoring. Tail vein catheterization is performed with a 0.8-m long polyethylene tube connected to a 23-gaude needle, where a dead volume in a catheter is about 0.2 ml. On operating, 1.5 mL of D2O (99.8%, Cambridge Isotope, Woburn, Mass.) is manually injected into tail vein. After injecting, the catheter is flushed with 0.5 mL 0.9% NaCl solution. For comparison, an additional 0.2 mL Gd-DTPA (Magnevist) is manually injected into tail vein while D2O scanning is completed after 10 min. After injection, the catheter is flushed with 0.5 mL 0.9% NaCl solution. In vivo brain imaging is performed in prone position. All images are acquired on a 4.7 animal MRI scanner (Bruker Biospec 47/40). The parameters for the dynamic images are as follow: TR/TE/θ=1000 ms/30 ms/90 degree, FOV=2.9 cm, matrix size=128×128, and slice thickness=1 mm. Averaged signals from whole brain are portrayed as a signal-intensity curve. For comparison, the signal-intensity curve is transferred into a percentage change curve according to the following formula: Therein, S(t) is a signal at time t and S0 is a signal before using the contrast agent. […]

[4] = patients having kidney diseases; cited from earlier work

Row | T1 relaxation rate (R1) of H versus D2O concentration [2] | Compound | toxicity to animals [1] | signal change [3] | nephrogenic systemic fibrosis (NSF) [4]
1 | linearly decreased | [2H]O[2H] [D2O, deuterium oxide] | not toxic | 10% | –
2 | – | O=C([O-])CN(CCN(CC(=O)[O-])CC(=O)O)CCN(CC(=O)[O-])CC(=O)O.[Gd+3] [Gd-DTPA] | – | – | possible to cause nephrogenic systemic fibrosis (NSF)
